Experimental data as given in ChEMBL document CHEMBL1148111, “Synthesis and biological evaluation of hyperforin analogues. Part I. Modification of the enolized cyclohexanedione moiety” (J Nat Prod, 2002).

Target: Sodium-dependent serotonin transporter (Rattus norvegicus, UniProt P31652)
Assay: Inhibition of [3H]5HT reuptake at serotonin transporter in rat brain synaptosomes
Type: subcellular

Sodium-dependent serotonin transporter, sequence (P31652 whole entry): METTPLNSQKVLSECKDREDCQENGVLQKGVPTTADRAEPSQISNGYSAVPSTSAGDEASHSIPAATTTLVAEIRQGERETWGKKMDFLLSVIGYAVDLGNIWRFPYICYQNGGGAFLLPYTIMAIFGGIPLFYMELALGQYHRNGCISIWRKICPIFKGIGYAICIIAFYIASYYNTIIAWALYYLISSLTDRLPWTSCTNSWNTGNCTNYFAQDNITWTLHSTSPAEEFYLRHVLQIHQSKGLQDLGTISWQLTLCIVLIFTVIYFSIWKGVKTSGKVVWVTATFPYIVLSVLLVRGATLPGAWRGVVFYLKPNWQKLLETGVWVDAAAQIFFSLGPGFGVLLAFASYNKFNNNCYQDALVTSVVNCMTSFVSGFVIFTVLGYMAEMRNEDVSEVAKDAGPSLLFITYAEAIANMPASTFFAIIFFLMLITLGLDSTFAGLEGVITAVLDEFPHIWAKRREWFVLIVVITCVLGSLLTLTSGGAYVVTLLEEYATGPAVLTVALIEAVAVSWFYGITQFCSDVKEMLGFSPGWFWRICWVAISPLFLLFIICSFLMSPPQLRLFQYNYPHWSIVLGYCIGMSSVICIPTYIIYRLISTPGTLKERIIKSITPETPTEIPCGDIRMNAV

IC50	SMILES
> 18.1 µM	CC(C)=CCC[C@]1(C)[C@@H](CC=C(C)C)C[C@]2(CC=C(C)C)C(=O)[C@@](O)(CC=C(C)C)C(=O)[C@@]1(C(=O)C(C)C)C2=O
> 13.7 µM	CC(C)=CCC[C@]1(C)[C@@H](CC=C(C)C)C[C@@]2(CC=C(C)C)C(=O)[C@@]1(C(=O)C(C)C)C(=O)C(CC=C(C)C)=C2OC(=O)c1cc([N+](=O)[O-])cc([N+](=O)[O-])c1
> 18.7 µM	CC(C)=C/C=C1\C(=O)[C@@]2(CC=C(C)C)C[C@H](CC=C(C)C)[C@@](C)(CCC=C(C)C)[C@](C(=O)C(C)C)(C1=O)C2=O
> 18.2 µM	CC(C)=CCC[C@]1(C)[C@@H](CC=C(C)C)C[C@]2(CC=C(C)C)C(=O)[C@](C)(CC=C(C)C)C(=O)[C@]1(C(=O)C(C)C)C2=O [C-Methylhyperforin]
> 18.7 µM	CC(C)=CCC[C@]1(C)[C@@H](CC=C(C)C)C[C@@]2(CC=C(C)C)C(=O)[C@]1(C(=O)C(C)C)C(=O)C1=C2OC(C)(C)C=C1 [DEHYDROHYPERFORIN]
> 17.3 µM	CC(=O)OC1=C(CC=C(C)C)C(=O)[C@]2(C(=O)C(C)C)C(=O)[C@]1(CC=C(C)C)C[C@H](CC=C(C)C)[C@@]2(C)CCC=C(C)C [HYPERFORIN ACETATE]

Continued, compound first:

SMILES	IC50
CC(C)=CCC[C@]1(C)[C@@H](CC=C(C)C)C[C@]2(CC=C(C)C)C(=O)C(CC=C(C)C)=C(O)[C@@]1(C(=O)C(C)C)C2=O	2.05 µM
CC(C)=CCC[C@]1(C)[C@@H](CC=C(C)C)C[C@]2(CC=C(C)C)C(=O)[C@]3(CC=C(C)C)O[C@@]2(O)[C@@]1(C(=O)C(C)C)C3=O	> 18.1 µM
COC1=C(CC=C(C)C)C(=O)[C@]2(C(=O)C(C)C)C(=O)[C@]1(CC=C(C)C)C[C@H](CC=C(C)C)[C@@]2(C)CCC=C(C)C	> 18.2 µM
CC(C)=CCC[C@]1(C)[C@@H](CC=C(C)C)C[C@]23C[C@@H](C(C)(C)O)OC2=C(CC=C(C)C)C(=O)[C@]1(C(=O)C(C)C)C3=O	> 18.1 µM
C=C(C)[C@@H]1C[C@@]23C[C@H](CC=C(C)C)[C@@](C)(CCC=C(C)C)[C@](C(=O)C(C)C)(C(=O)C(CC=C(C)C)=C2O1)C3=O [DEHYDROFUROHYPERFORIN]	> 18.7 µM
COc1cc(C(=O)OC2=C(CC=C(C)C)C(=O)[C@@]3(C(=O)C(C)C)C(=O)[C@]2(CC=C(C)C)C[C@H](CC=C(C)C)[C@@]3(C)CCC=C(C)C)cc(OC)c1OC [HYPERFORINTRIMETHOXYBENZOATE]	> 13.7 µM
